Experimental data: the NIST ThermoML archive (doi:10.1021/je500804j)

Assay: mn = molality of the nth substance listed, in mol/kg
Settings: 101 kPa, Liquid, Alternating current cell with electrodes

CCCCCCCC[N+](C)(C)CCCCCCCCCCCC[N+](C)(C)CCCCCCCC.[Br-].[Br-] + O
Settings | electrical conductivity [S/m]
308.15 K, m1 = 0.01941 | 0.3482
308.15 K, m1 = 0.02017 | 0.3578
308.15 K, m1 = 0.02093 | 0.3674
308.15 K, m1 = 0.02167 | 0.3751
308.15 K, m1 = 0.0224 | 0.3838
308.15 K, m1 = 0.02312 | 0.3913
308.15 K, m1 = 0.02383 | 0.4003
308.15 K, m1 = 0.02453 | 0.4069
308.15 K, m1 = 0.02522 | 0.4161
308.15 K, m1 = 0.02589 | 0.421
308.15 K, m1 = 0.02722 | 0.4336
308.15 K, m1 = 0.02787 | 0.4365
308.15 K, m1 = 0.02851 | 0.4424
308.15 K, m1 = 0.02956 | 0.4571
308.15 K, m1 = 0.03058 | 0.4621
308.15 K, m1 = 0.03158 | 0.4749
308.15 K, m1 = 0.03256 | 0.48
308.15 K, m1 = 0.03351 | 0.489
308.15 K, m1 = 0.03536 | 0.5074
308.15 K, m1 = 0.03625 | 0.5158
308.15 K, m1 = 0.03712 | 0.5223
308.15 K, m1 = 0.03798 | 0.527
308.15 K, m1 = 0.03964 | 0.541
308.15 K, m1 = 0.04123 | 0.5548
308.15 K, m1 = 0.04275 | 0.5671
308.15 K, m1 = 0.04422 | 0.5777
308.15 K, m1 = 0.04563 | 0.5885
308.15 K, m1 = 0.04699 | 0.5986
308.15 K, m1 = 0.04829 | 0.6068
308.15 K, m1 = 0.05077 | 0.6251
308.15 K, m1 = 0.05194 | 0.6322
313.15 K, m1 = 0.00357 | 0.06951
313.15 K, m1 = 0.00692 | 0.1517
313.15 K, m1 = 0.01009 | 0.2177
313.15 K, m1 = 0.01308 | 0.2687
313.15 K, m1 = 0.01591 | 0.3262
313.15 K, m1 = 0.01726 | 0.3465
313.15 K, m1 = 0.01859 | 0.3645
313.15 K, m1 = 0.01987 | 0.3859
313.15 K, m1 = 0.02113 | 0.4024
313.15 K, m1 = 0.02187 | 0.4121
313.15 K, m1 = 0.02259 | 0.4248
313.15 K, m1 = 0.02331 | 0.4317
313.15 K, m1 = 0.02401 | 0.4367
313.15 K, m1 = 0.02471 | 0.4441
313.15 K, m1 = 0.02539 | 0.4521
313.15 K, m1 = 0.02606 | 0.4597
313.15 K, m1 = 0.02673 | 0.467
313.15 K, m1 = 0.02803 | 0.4808
313.15 K, m1 = 0.02866 | 0.4878
313.15 K, m1 = 0.02929 | 0.4944
313.15 K, m1 = 0.03052 | 0.5075
313.15 K, m1 = 0.03112 | 0.5138
313.15 K, m1 = 0.03171 | 0.5209
313.15 K, m1 = 0.0323 | 0.5266
313.15 K, m1 = 0.03326 | 0.5361
313.15 K, m1 = 0.03419 | 0.5442
313.15 K, m1 = 0.03511 | 0.5535
313.15 K, m1 = 0.036 | 0.5625
313.15 K, m1 = 0.03688 | 0.5732
313.15 K, m1 = 0.03774 | 0.5794
313.15 K, m1 = 0.03858 | 0.5898
313.15 K, m1 = 0.0394 | 0.5956
313.15 K, m1 = 0.041 | 0.6125
313.15 K, m1 = 0.04253 | 0.6257
313.15 K, m1 = 0.044 | 0.637
313.15 K, m1 = 0.04541 | 0.6512
313.15 K, m1 = 0.04678 | 0.665
313.15 K, m1 = 0.04809 | 0.6744
313.15 K, m1 = 0.04935 | 0.6838
313.15 K, m1 = 0.05057 | 0.6958
313.15 K, m1 = 0.05175 | 0.7055
318.15 K, m1 = 0.00371 | 0.07542
318.15 K, m1 = 0.00722 | 0.164
318.15 K, m1 = 0.01052 | 0.245
318.15 K, m1 = 0.01364 | 0.3143
318.15 K, m1 = 0.01659 | 0.3687
318.15 K, m1 = 0.01801 | 0.3868
318.15 K, m1 = 0.01939 | 0.4168
318.15 K, m1 = 0.02073 | 0.43
318.15 K, m1 = 0.02204 | 0.4546
318.15 K, m1 = 0.0228 | 0.465
318.15 K, m1 = 0.02356 | 0.4755
318.15 K, m1 = 0.02431 | 0.4857
318.15 K, m1 = 0.02577 | 0.5063
318.15 K, m1 = 0.02648 | 0.5133
318.15 K, m1 = 0.02718 | 0.5232
318.15 K, m1 = 0.02787 | 0.5323
318.15 K, m1 = 0.02856 | 0.5407
318.15 K, m1 = 0.02923 | 0.5499
318.15 K, m1 = 0.02989 | 0.5578
318.15 K, m1 = 0.03119 | 0.5732
318.15 K, m1 = 0.03245 | 0.5881
318.15 K, m1 = 0.03307 | 0.5997
318.15 K, m1 = 0.03368 | 0.6044
318.15 K, m1 = 0.03428 | 0.6091
318.15 K, m1 = 0.03488 | 0.6155
318.15 K, m1 = 0.03546 | 0.6234
318.15 K, m1 = 0.03604 | 0.6307
318.15 K, m1 = 0.03661 | 0.6379
318.15 K, m1 = 0.03717 | 0.6434
318.15 K, m1 = 0.03828 | 0.655
318.15 K, m1 = 0.03918 | 0.6646
318.15 K, m1 = 0.04006 | 0.6728
318.15 K, m1 = 0.04092 | 0.681
318.15 K, m1 = 0.04176 | 0.6915
318.15 K, m1 = 0.04259 | 0.6986
318.15 K, m1 = 0.04419 | 0.7143
318.15 K, m1 = 0.04573 | 0.732
318.15 K, m1 = 0.04721 | 0.7463
318.15 K, m1 = 0.04863 | 0.7603
318.15 K, m1 = 0.05001 | 0.7719
318.15 K, m1 = 0.05133 | 0.7858
323.15 K, m1 = 0.00357 | 0.08471
323.15 K, m1 = 0.00693 | 0.1849
323.15 K, m1 = 0.01009 | 0.2444
323.15 K, m1 = 0.01308 | 0.3157
323.15 K, m1 = 0.01591 | 0.3898
323.15 K, m1 = 0.01859 | 0.436
323.15 K, m1 = 0.02113 | 0.483
323.15 K, m1 = 0.02355 | 0.5236
323.15 K, m1 = 0.02585 | 0.561
323.15 K, m1 = 0.02803 | 0.5895
323.15 K, m1 = 0.02909 | 0.6082
323.15 K, m1 = 0.03012 | 0.623
323.15 K, m1 = 0.03113 | 0.6393
323.15 K, m1 = 0.03211 | 0.6494
323.15 K, m1 = 0.03307 | 0.6638
323.15 K, m1 = 0.03401 | 0.6772
323.15 K, m1 = 0.03512 | 0.6913
323.15 K, m1 = 0.03566 | 0.6951
323.15 K, m1 = 0.03619 | 0.6993
323.15 K, m1 = 0.03671 | 0.7037
323.15 K, m1 = 0.03775 | 0.7171
323.15 K, m1 = 0.03825 | 0.7266
323.15 K, m1 = 0.03875 | 0.7317
323.15 K, m1 = 0.03925 | 0.7354
323.15 K, m1 = 0.03973 | 0.7413
323.15 K, m1 = 0.04069 | 0.7517
323.15 K, m1 = 0.04116 | 0.7566
323.15 K, m1 = 0.04162 | 0.7617
323.15 K, m1 = 0.04208 | 0.7694
323.15 K, m1 = 0.04254 | 0.7737
323.15 K, m1 = 0.04328 | 0.7801
323.15 K, m1 = 0.04401 | 0.7896
323.15 K, m1 = 0.04472 | 0.8
323.15 K, m1 = 0.04542 | 0.8049
323.15 K, m1 = 0.04611 | 0.8129
323.15 K, m1 = 0.04678 | 0.8211
323.15 K, m1 = 0.04745 | 0.831
323.15 K, m1 = 0.0481 | 0.8348
323.15 K, m1 = 0.04936 | 0.8479
323.15 K, m1 = 0.05058 | 0.8638
323.15 K, m1 = 0.05176 | 0.8724
